pEC50: −log10 of the molar value. Entries after “also recorded” stand apart in the source; their conditions may differ. Where two headings read alike, the source gives them in different places.
What was measured:
Assay type in all cases: cell-based
[1] = test system: parathyroid cell calcium receptor; details: for response in the absence of extracellular Ca2+: Ca2+-free / absence of extracellular Ca2+
[2] = molecular target: T1, bovine parathyroid cell calcium receptor (BoPCaR 1) (Bos taurus, UniProt P35384); experiment: Cl- current in Xenopus oocytes expressing BoPCaR 1; details: for Cl- current response in the absence of extracellular Ca2+: no extracellular Ca2+
T1 construct: Xenopus oocytes were injected with BoPCaR 1, the 5.3 Kb cDNA encoding a bovine parathyroid cell calcium receptor; expressed in transfected cells; host or cells: Xenopus laevis oocytes injected with cRNA/cDNA of BoPCaR 1
T1 sequence (P35384 20-1085): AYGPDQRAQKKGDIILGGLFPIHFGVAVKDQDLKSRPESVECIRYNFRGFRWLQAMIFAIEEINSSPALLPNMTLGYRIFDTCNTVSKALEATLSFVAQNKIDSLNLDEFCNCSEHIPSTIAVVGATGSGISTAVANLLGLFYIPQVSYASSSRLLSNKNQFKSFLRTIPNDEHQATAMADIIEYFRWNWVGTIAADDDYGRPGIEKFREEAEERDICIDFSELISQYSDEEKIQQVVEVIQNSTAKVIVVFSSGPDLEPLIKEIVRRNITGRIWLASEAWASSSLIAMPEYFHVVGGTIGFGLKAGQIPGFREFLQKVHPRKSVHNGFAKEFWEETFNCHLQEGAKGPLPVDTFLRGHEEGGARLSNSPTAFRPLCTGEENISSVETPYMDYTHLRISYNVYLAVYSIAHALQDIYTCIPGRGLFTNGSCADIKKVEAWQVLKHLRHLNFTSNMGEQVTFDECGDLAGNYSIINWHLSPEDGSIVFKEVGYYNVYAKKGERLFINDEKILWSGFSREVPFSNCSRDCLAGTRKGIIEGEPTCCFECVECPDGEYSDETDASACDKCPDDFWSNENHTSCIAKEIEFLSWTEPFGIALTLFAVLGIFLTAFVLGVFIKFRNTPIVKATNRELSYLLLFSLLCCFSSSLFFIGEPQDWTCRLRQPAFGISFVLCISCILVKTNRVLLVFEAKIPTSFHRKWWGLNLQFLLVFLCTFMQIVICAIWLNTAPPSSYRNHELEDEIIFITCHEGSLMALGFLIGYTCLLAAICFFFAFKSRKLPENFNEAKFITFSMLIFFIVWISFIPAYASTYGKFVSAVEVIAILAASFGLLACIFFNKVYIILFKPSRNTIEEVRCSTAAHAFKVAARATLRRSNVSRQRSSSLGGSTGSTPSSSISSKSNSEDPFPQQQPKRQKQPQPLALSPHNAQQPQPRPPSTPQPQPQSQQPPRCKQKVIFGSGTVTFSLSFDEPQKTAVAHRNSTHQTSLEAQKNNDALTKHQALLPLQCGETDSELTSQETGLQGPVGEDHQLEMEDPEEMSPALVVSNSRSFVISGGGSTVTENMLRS
Method: Following incubation, an oocyte was placed into a 100-μl plastic chamber and superfused with MBS at a flow rate of 0.5 ml/min using a peristaltic pump. Test molecules or inorganic polycations were added by rapidly moving the tubing into different buffers. Recording and current-passing electrodes were constructed from thin-wall capillary tubing pulled to a resistance of 1-3 Mohms and filled with 3M KCl. […] Currents were recorded directly onto a strip chart recorder.
The techniques used to clone the parathyroid calcium receptor are briefly described in this example; a more complete description of the techniques is provided in preceding sections, which describe techniques which may be used to clone additional forms of the Ca^2+ -receptor from other cell types. Poly(A^+)-enriched mRNA was initially prepared from bovine parathyroid glands by extracting with guanidinium thiocyanate, centrifugation through CsCl and oligo(dT) cellulose chromatography. […] No such currents were elicited in control eggs injected with water.
These responses are mediated by the following series of biochemical events:
Xenopus oocytes were injected with BoPCaR 1, the 5.3 Kb cDNA encoding a bovine parathyroid cell calcium receptor as described in Example 25. After two to three days, Cl^- currents were examined in the oocytes using a two-electrode voltage clamp.
Xenopus oocytes were injected with BoPCaR 1 as described in Example 25. After two to three days, Cl^- currents were examined in the oocytes using two electrode voltage clamp.

C-cell calcium receptor = molecular target: T2, C-cell calcium receptor (Rattus norvegicus, UniProt P48442); parameters: Neoplastic C-cells derived from a rat medullary thyroid carcinoma (rMTC 6-23); host or cells: rMTC 6-23
T2 sequence (P48442 20-1079): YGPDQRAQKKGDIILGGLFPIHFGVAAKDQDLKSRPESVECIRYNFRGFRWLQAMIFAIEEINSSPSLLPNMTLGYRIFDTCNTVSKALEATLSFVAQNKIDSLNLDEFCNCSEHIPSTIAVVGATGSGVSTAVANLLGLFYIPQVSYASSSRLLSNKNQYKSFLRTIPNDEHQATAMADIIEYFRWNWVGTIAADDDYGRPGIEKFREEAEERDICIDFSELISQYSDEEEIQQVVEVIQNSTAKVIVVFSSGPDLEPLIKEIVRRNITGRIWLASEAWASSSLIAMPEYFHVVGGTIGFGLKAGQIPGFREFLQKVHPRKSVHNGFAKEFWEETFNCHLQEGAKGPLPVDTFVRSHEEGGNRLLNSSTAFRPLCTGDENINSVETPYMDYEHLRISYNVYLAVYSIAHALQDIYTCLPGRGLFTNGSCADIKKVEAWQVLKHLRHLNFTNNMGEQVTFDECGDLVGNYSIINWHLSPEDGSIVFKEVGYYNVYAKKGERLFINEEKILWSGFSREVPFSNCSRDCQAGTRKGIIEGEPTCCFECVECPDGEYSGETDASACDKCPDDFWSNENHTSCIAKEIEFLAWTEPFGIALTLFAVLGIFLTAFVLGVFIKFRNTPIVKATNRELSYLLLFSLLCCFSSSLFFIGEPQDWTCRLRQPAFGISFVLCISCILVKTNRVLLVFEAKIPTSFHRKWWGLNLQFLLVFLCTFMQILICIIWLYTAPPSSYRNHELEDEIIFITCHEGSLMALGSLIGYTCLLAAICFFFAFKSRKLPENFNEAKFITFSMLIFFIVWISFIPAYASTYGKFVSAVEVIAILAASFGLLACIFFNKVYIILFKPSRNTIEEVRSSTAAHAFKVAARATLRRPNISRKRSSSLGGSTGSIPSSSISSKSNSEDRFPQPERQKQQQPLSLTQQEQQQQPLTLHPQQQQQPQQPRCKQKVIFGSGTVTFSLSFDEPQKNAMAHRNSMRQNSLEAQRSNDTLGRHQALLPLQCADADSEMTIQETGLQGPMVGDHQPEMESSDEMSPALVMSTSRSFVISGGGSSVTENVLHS
Description: To assess the effects of molecular polycations on C-cells, a neoplastic cell line, derived from a rat medullary thyroid carcinoma (rMTC 6-23 cells) was used.

[3] = rMTC 6-23 cells, fura-2, inactive = no increase in cytosolic Ca2+ at 1-5 mM

## COc1cccc([C@@H](C)NCCCc2ccccc2)c1 (single isomer, unassigned) [NPS R-467]
[1]; 30 μM NPS R-467 after 10 μM neomycin, Ca2+-free buffer
  increase in [Ca2+]i after 10 μM neomycin: elicited a transient increase
[1]; 30 μM NPS R-467 after 100 μM neomycin, Ca2+-free buffer
  increase in [Ca2+]i after 100 μM neomycin: did not cause an increase
[1]; 30 μM, Ca2+-free buffer
  increase in [Ca2+]i (words): no increase; also recorded: did not cause any increase
[1]; 0.5 mM extracellular Ca2+
  increase in [Ca2+]i (words): rapid and transient increase
[1]
  response in the absence of extracellular Ca2+: abolished; also recorded: do not cause the mobilization of intracellular
[1]; bovine parathyroid cells
  effect on responses to extracellular Ca2+: increase the sensitivity of the calcium receptor
[2]
  potentiation of response to submaximal extracellular Ca2+: potentiate the response

## NCCCNCCCCNCCCNCCCNCCCNC(=O)Cc1c[nH]c2ccccc12 [NPS 019]
[1]; bovine parathyroid cells, fura-2, read-out: EC50 PARATHYROID (Table 6)
  pEC50: 4.40
[2]; 1 mM extracellular Ca2+
  Cl- current: oscillatory increases
[2]
  Cl- current response in the absence of extracellular Ca2+: persisted
C-cell calcium receptor; 10 μM, 0.5 mM [Ca2+]
  transient increase in [Ca2+]i: transient increase

## COc1cccc([C@@H](C)NCCCc2ccccc2Cl)c1 [NPS R-568, (R)-(+)-N-[3-(2-chlorophenyl)propyl]-amethyl-α-3-methoxybenzylamine]
[1]
  increase in [Ca2+]i / mobilization of intracellular Ca2+: evokes increases
  response in the absence of extracellular Ca2+: fails to evoke increases; also recorded: do not cause the mobilization of intracellular
[1]; bovine parathyroid cells
  effect on responses to extracellular Ca2+: potentiate responses to extracellular; also recorded: increase the sensitivity of the calcium receptor
[2]
  potentiation of response to submaximal extracellular Ca2+: potentiate the response; also recorded: potentiated the responses to submaximal concentrations
  Cl- current response in the absence of extracellular Ca2+: abolished
C-cell calcium receptor; [3]
  pEC50: 5.72

## NC[C@@H]1O[C@H](O[C@H]2[C@@H](O)[C@H](O[C@@H]3[C@@H](O)[C@H](N)C[C@H](N)[C@H]3O[C@H]3O[C@H](CN)[C@@H](O)[C@H](O)[C@H]3N)O[C@@H]2CO)[C@H](N)[C@@H](O)[C@@H]1O [Neomycin]
[1]
  increase in [Ca2+]i / mobilization of intracellular Ca2+: evoked rapid and transient increases
[1]; 10 μM, Ca2+-free buffer
  increase in [Ca2+]i (words): did not by itself cause an increase
[1]; 100 μM, absence of extracellular Ca2+
  increase in [Ca2+]i (words): evoked a rapid and transient increase
[2]
  concentrations eliciting increases in Cl- current: 20 to 100 µM
  Cl- current response in the absence of extracellular Ca2+: persists
[2]; cRNA-injected oocytes
  large inward currents: effective concentration: 200 µM
C-cell calcium receptor
  effect on basal [Ca2+]i: fails to affect basal or evoked increases; also recorded: without effect on basal
C-cell calcium receptor; [3]
  EC50 C-CELL (Table 6): inactive

— patent publication US5858684A, “Method of screening calcium receptor-active molecules” (priority 1995, dated 1999)
